# Activity calls are given as the source filed them. The calls are words filed in the database; no cut-off is given here.
# Assays:
# LOX IMVI = assay: Growth inhibition of human LOX IMVI cells at 10 uM relative to control; format: functional; conditions: read-out: GI
# MDA-MB-468 = assay: Growth inhibition of human MDA-MB-468 cells at 10 uM relative to control; format: functional
# T47D = assay: Growth inhibition of human T47D cells at 10 uM relative to control; format: functional
# CCRF-CEM = assay: Growth inhibition of human CCRF-CEM cells at 10 uM relative to control; format: functional
# HL-60(TB) = assay: Growth inhibition of human HL-60(TB) cells at 10 uM relative to control; format: functional
# K562 = assay: Growth inhibition of human K562 cells at 10 uM relative to control; format: functional; conditions: read-out: GI
# MOLT-4 = assay: Growth inhibition of human MOLT-4 cells at 10 uM relative to control; format: functional
# RPMI-8226 = assay: Growth inhibition of human RPMI-8226 cells at 10 uM relative to control; format: functional
# SR = assay: Growth inhibition of human SR cells at 10 uM relative to control; format: functional
# A549 = assay: Growth inhibition of human A549 cells at 10 uM relative to control; format: functional
# HOP-62 = assay: Growth inhibition of human HOP-62 cells at 10 uM relative to control; format: functional; conditions: read-out: GI
# HOP-92 = assay: Growth inhibition of human HOP-92 cells at 10 uM relative to control; format: functional
# NCI-H226 = assay: Growth inhibition of human NCI-H226 cells at 10 uM relative to control; format: functional
# NCI-H23 = assay: Growth inhibition of human NCI-H23 cells at 10 uM relative to control; format: functional; conditions: read-out: GI
# NCI-H322M = assay: Growth inhibition of human NCI-H322M cells at 10 uM relative to control; format: functional; conditions: read-out: GI
# NCI-H460 = assay: Growth inhibition of human NCI-H460 cells at 10 uM relative to control; format: functional; conditions: read-out: GI
# NCI-H522 = assay: Growth inhibition of human NCI-H522 cells at 10 uM relative to control; format: functional
# SW-620 = assay: Growth inhibition of human SW-620 cells at 10 uM relative to control; format: functional; conditions: read-out: GI
# COLO 205 = assay: Growth inhibition of human COLO 205 cells at 10 uM relative to control; format: functional
# HCC 2998 = assay: Growth inhibition of human HCC 2998 cells at 10 uM relative to control; format: functional
# HCT-116 = assay: Growth inhibition of human HCT-116 cells at 10 uM relative to control; format: functional; conditions: read-out: GI
# HCT-15 = assay: Growth inhibition of human HCT-15 cells at 10 uM relative to control; format: functional; conditions: read-out: GI
# HT-29 = assay: Growth inhibition of human HT-29 cells at 10 uM relative to control; format: functional; conditions: read-out: GI
# KM12 = assay: Growth inhibition of human KM12 cells at 10 uM relative to control; format: functional; conditions: read-out: GI
# SF-268 = assay: Growth inhibition of human SF-268 cells at 10 uM relative to control; format: functional
# SF-295 = assay: Growth inhibition of human SF-295 cells at 10 uM relative to control; format: functional
# SF-539 = assay: Growth inhibition of human SF-539 cells at 10 uM relative to control; format: functional
# SNB-19 = assay: Growth inhibition of human SNB-19 cells at 10 uM relative to control; format: functional
# SNB-75 = assay: Growth inhibition of human SNB-75 cells at 10 uM relative to control; format: functional
# U-251 = assay: Growth inhibition of human U-251 cells at 10 uM relative to control; format: functional; conditions: read-out: GI
# Malme-3M = assay: Growth inhibition of human Malme-3M cells at 10 uM relative to control; format: functional
# M14 = assay: Growth inhibition of human M14 cells at 10 uM relative to control; format: functional
# MDA-MB-435 = assay: Growth inhibition of human MDA-MB-435 cells at 10 uM relative to control; format: functional
# SK-MEL-2 = assay: Growth inhibition of human SK-MEL-2 cells at 10 uM relative to control; format: functional
# SK-MEL-28 = assay: Growth inhibition of human SK-MEL-28 cells at 10 uM relative to control; format: functional
# SK-MEL-5 = assay: Growth inhibition of human SK-MEL-5 cells at 10 uM relative to control; format: functional
# UACC-257 = assay: Growth inhibition of human UACC-257 cells at 10 uM relative to control; format: functional; conditions: read-out: GI
# UACC-62 = assay: Growth inhibition of human UACC-62 cells at 10 uM relative to control; format: functional
# IGROV-1 = assay: Growth inhibition of human IGROV-1 cells at 10 uM relative to control; format: functional
# OVCAR-4 = assay: Growth inhibition of human OVCAR-4 cells at 10 uM relative to control; format: functional; conditions: read-out: GI
# OVCAR-5 = assay: Growth inhibition of human OVCAR-5 cells at 10 uM relative to control; format: functional
# OVCAR-8 = assay: Growth inhibition of human OVCAR-8 cells at 10 uM relative to control; format: functional
# NCI/ADR-RES = assay: Growth inhibition of human NCI/ADR-RES cells at 10 uM relative to control; format: functional; conditions: read-out: GI
# SK-OV-3 = assay: Growth inhibition of human SK-OV-3 cells at 10 uM relative to control; format: functional; conditions: read-out: GI
# 786-0 = assay: Growth inhibition of human 786-0 cells at 10 uM relative to control; format: functional; conditions: read-out: GI
# A498 = assay: Growth inhibition of human A498 cells at 10 uM relative to control; format: functional
# ACHN = assay: Growth inhibition of human ACHN cells at 10 uM relative to control; format: functional
# CAKI-1 = assay: Growth inhibition of human CAKI-1 cells at 10 uM relative to control; format: functional
# RXF 393 = assay: Growth inhibition of human RXF 393 cells at 10 uM relative to control; format: functional
# SN12C = assay: Growth inhibition of human SN12C cells at 10 uM relative to control; format: functional; conditions: read-out: GI
# TK-10 = assay: Growth inhibition of human TK-10 cells at 10 uM relative to control; format: functional; conditions: read-out: GI
# UO-31 = assay: Growth inhibition of human UO-31 cells at 10 uM relative to control; format: functional; conditions: read-out: GI
# PC-3 = assay: Growth inhibition of human PC-3 cells at 10 uM relative to control; format: functional; conditions: read-out: GI
# DU-145 = assay: Growth inhibition of human DU-145 cells at 10 uM relative to control; format: functional; conditions: read-out: GI
# MCF7 = assay: Growth inhibition of human MCF7 cells at 10 uM relative to control; format: functional; conditions: read-out: GI
# MDA-MB-231 = assay: Growth inhibition of human MDA-MB-231 cells at 10 uM relative to control; format: functional; conditions: read-out: GI
# Hs-578T = assay: Growth inhibition of human Hs-578T cells at 10 uM relative to control; format: functional
# BT-549 = assay: Growth inhibition of human BT-549 cells at 10 uM relative to control; format: functional
# DNA = assay: Displacement of methyl green from DNA (unknown origin) assessed as DNA intercalation after 24 hrs by colorimetric assay; format: nucleic-acid assay
# [1] = test system: Panel NCI-60 (60 carcinoma cell lines); assay: Growth inhibition of human NCI60 cells; format: functional
smiles,measurement,setting,value
COc1cccc2c1C(=O)c1c(O)c3c(c(O)c1C2=O)C[C@@](O)(C(=O)CO)C[C@@H]3O[C@H]1C[C@H](N)[C@H](O)[C@H](C)O1 [DOXORUBICIN],inhibition of growth at 10 µM,LOX IMVI,94.3%
same,growth inhibition (GI),MDA-MB-468,Active
same,growth inhibition (GI),T47D,Active
same,growth inhibition (GI),CCRF-CEM,Active
same,growth inhibition (GI),HL-60(TB),Active
same,inhibition of growth at 10 µM,K562,97.9%
same,growth inhibition (GI),MOLT-4,Active
same,growth inhibition (GI),RPMI-8226,Active
same,growth inhibition (GI),SR,Active
same,growth inhibition (GI),A549,Active
same,inhibition of growth at 10 µM,HOP-62,93.1%
same,growth inhibition (GI),HOP-92,Active
same,growth inhibition (GI),NCI-H226,Active
same,inhibition of growth at 10 µM,NCI-H23,66.7%
same,inhibition of growth at 10 µM,NCI-H322M,86.1%
same,inhibition of growth at 10 µM,NCI-H460,99.4%
same,growth inhibition (GI),NCI-H522,Active
same,inhibition of growth at 10 µM,SW-620,98.1%
same,growth inhibition (GI),COLO 205,Active
same,growth inhibition (GI),HCC 2998,Active
same,inhibition of growth at 10 µM,HCT-116,97.2%
same,inhibition of growth at 10 µM,HCT-15,84.8%
same,inhibition of growth at 10 µM,HT-29,95.3%
same,inhibition of growth at 10 µM,KM12,95.8%
same,growth inhibition (GI),SF-268,Active
same,growth inhibition (GI),SF-295,Active
same,growth inhibition (GI),SF-539,Active
same,growth inhibition (GI),SNB-19,Active
same,growth inhibition (GI),SNB-75,Active
same,inhibition of growth at 10 µM,U-251,90.8%
same,growth inhibition (GI),Malme-3M,Active
same,growth inhibition (GI),M14,Active
same,growth inhibition (GI),MDA-MB-435,Active
same,growth inhibition (GI),SK-MEL-2,Active
same,growth inhibition (GI),SK-MEL-28,Active
same,growth inhibition (GI),SK-MEL-5,Active
same,inhibition of growth at 10 µM,UACC-257,96.5%
same,growth inhibition (GI),UACC-62,Active
same,growth inhibition (GI),IGROV-1,Active
same,inhibition of growth at 10 µM,OVCAR-4,85.9%
same,growth inhibition (GI),OVCAR-5,Active
same,growth inhibition (GI),OVCAR-8,Active
same,inhibition of growth at 10 µM,NCI/ADR-RES,95.1%
same,inhibition of growth at 10 µM,SK-OV-3,86.2%
same,inhibition of growth at 10 µM,786-0,95.5%
same,growth inhibition (GI),A498,Active
same,growth inhibition (GI),ACHN,Active
same,growth inhibition (GI),CAKI-1,Active
same,growth inhibition (GI),RXF 393,Active
same,inhibition of growth at 10 µM,SN12C,88%
same,inhibition of growth at 10 µM,TK-10,74.6%
same,inhibition of growth at 10 µM,UO-31,96%
same,inhibition of growth at 10 µM,PC-3,98.7%
same,inhibition of growth at 10 µM,DU-145,86.8%
same,inhibition of growth at 10 µM,MCF7,96.6%
same,inhibition of growth at 10 µM,MDA-MB-231,96.2%
same,growth inhibition (GI),Hs-578T,Active
same,growth inhibition (GI),BT-549,Active
same,IC50,DNA,31.27 µg/mL
same,GI50,[1],150 nM
same,TGI,[1],2480 nM

# Reference: ChEMBL document CHEMBL4665869, “New thiazolopyrimidine as anticancer agents: Synthesis, biological evaluation, DNA binding, molecular modeling and ADMET study” (Bioorg Med Chem Lett, 2020)
